This is an account of results in the Kinase Knowledgebase extract (Sharma et al. 2016).

Structures are written as SMILES. Where only a bound is given, the exact number is not on record here.

This assay concerns the target PIK3CG (human) (UniProt P48736). The assay is described as follows: Inhibition of PIK3CG Kinase Activity.

PIK3CG (human), sequence (P48736 whole entry, looked up): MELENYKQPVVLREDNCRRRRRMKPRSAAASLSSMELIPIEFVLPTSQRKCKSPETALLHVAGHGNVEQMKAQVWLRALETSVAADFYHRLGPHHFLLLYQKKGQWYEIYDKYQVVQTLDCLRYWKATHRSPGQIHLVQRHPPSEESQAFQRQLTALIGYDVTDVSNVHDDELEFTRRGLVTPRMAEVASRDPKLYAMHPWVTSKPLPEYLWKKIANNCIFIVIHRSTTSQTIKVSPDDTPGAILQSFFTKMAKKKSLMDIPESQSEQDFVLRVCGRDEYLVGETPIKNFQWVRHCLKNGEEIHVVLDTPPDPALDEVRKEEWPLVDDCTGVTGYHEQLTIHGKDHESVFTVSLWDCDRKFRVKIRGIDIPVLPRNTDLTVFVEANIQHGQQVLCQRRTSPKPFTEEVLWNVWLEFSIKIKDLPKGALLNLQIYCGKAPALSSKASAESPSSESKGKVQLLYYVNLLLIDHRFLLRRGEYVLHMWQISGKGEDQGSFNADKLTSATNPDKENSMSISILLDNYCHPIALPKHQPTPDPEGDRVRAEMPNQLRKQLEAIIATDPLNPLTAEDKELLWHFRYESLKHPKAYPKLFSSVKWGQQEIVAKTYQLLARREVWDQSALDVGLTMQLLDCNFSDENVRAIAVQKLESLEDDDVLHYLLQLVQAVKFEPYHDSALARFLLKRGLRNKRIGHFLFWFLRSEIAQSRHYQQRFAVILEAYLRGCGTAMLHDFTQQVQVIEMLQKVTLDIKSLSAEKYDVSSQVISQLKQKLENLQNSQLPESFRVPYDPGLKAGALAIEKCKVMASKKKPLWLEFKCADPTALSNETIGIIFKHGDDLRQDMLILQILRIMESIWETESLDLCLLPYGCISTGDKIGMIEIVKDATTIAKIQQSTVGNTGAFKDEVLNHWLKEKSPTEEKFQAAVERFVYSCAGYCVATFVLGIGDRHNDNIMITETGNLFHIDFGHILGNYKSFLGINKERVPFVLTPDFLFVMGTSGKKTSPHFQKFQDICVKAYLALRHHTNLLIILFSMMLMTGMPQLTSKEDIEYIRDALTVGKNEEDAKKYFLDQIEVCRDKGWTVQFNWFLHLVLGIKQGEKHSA

In general, Ki refers to a dissociation constant, usually derived from enzyme kinetics or from competition with a known ligand. The low end stands for a stronger hold on the target, the high end for a looser hold on the target. `COc1cc(-c2ccc3c(n2)[C@@H](C)N(c2cn(CC(F)(F)F)cn2)C3=O)cnc1OC` gave an inhibition constant (Ki) of less than 100 nM.
`COc1cc(-c2ccc3c(n2)CN(c2cncc(C#CCO)c2)C3=O)cnc1OC` registered a Ki of 100 to 490 nM.
In turn, `COc1cc(-c2ccc3c(n2)CN(c2cn(CC(F)(F)F)cn2)C3=O)cnc1OC` showed a Ki of less than 100 nM.
Compound `Cc1cc(-c2cncc(OC(F)F)c2)nc2c1C(=O)N(c1cnn(C[C@@H](C)O)c1)C2` yielded a Ki of less than 100 nM.
`COc1cc(-c2ccc3c(n2)CN(c2ccc(OCC(F)(F)F)nc2)C3=O)cnc1OC` returned a Ki of 100 to 490 nM.
In turn, `CCc1cc(N2Cc3nc(-c4cnc(OC)c(OC)c4)ccc3C2=O)nn1CC` had a Ki of less than 100 nM.
To `CCOc1cc(-c2cc(C)c3c(n2)C(OCCOC)N(c2cnn(CC(F)(F)F)c2)C3=O)cnc1OC` (stereo not given) belongs less than 100 nM.
Compound `COc1cncc(-c2cc(C)c3c(n2)C2(CCNCC2)N(c2cnn(CC(F)(F)F)c2)C3=O)c1` registered a Ki of 100 to 490 nM.
Compound `COc1cc(-c2cc(C)c3c(n2)CN(c2ccnc(C#N)c2)C3=O)cnc1OC` had a Ki of less than 100 nM.
To `COc1cc(-c2ccc3c(n2)C(C)N(c2csc(SC)n2)C3=O)cnc1OC` (stereo not given) belongs less than 100 nM; to `CCOc1cc(-c2cc(C)c3c(n2)C(C)N(c2cnn(CC(F)F)c2)C3=O)cnc1C` (stereo not given), less than 100 nM; to `COc1cc(-c2cc(C)c3c(n2)C(CC2CCOC2)N(c2cnn(CC(F)(F)F)c2)C3=O)cnc1OC` (stereo not given), less than 100 nM.
To `COCCOCCOc1ncc(-c2cc(C)c3c(n2)CN(c2cnn(C)c2)C3=O)cc1OC` belongs 100 to 490 nM; to `Cc1cc(-c2cncc(C(=O)NC3CC3)c2)nc2c1C(=O)N(c1cnn(CC(F)(F)F)c1)C2(C)C`, 100 to 490 nM; to `COc1cc(-c2ccc3c(n2)CN(c2ccc(OC(CO)C(F)(F)F)nc2)C3=O)cnc1OC` (stereo not given), less than 100 nM.
Take `COc1cncc(-c2cc(C)c3c(n2)C2(CC2)N(c2cnn(CC(F)(F)F)c2)C3=O)c1`: the Ki is less than 100 nM.
For the compound `COc1cncc(-c2cc(C)c3c(n2)[C@H](C)N(c2ccn(CC(C)(C)O)n2)C3=O)c1`, the Ki was less than 100 nM.
`COc1ccc(-c2cc(C)c3c(n2)CN(c2cnn(CC#N)c2)C3=O)nc1OC` registered a Ki of less than 100 nM.
Turning to `COc1cc(-c2ccc3c(n2)CN(c2cnn(C)c2)C3=O)cnc1OC`, the Ki was less than 100 nM.
Compound `COc1cc(-c2ccc3c(n2)CN(c2cnn(CCn4cccc4)c2)C3=O)cnc1OC` gave a Ki of less than 100 nM.
As to `COc1cc(-c2ccc3c(n2)C(C)N(c2ccnc(C(C)(C)C#N)c2)C3=O)cnc1OC` (stereo not given), the Ki fell in the range of 100 to 490 nM.
The compound `COc1cc(-c2ccc3c(n2)[C@H](C)N(c2cccc(C(C)(C)C#N)n2)C3=O)cnc1OC` yielded a Ki of less than 100 nM.
The compound `COc1cc(-c2ccc3c(n2)[C@H](C)N(c2ccn(C[C@@H](C)O)n2)C3=O)cnc1OC` came in with a Ki of less than 100 nM.
`COc1cc(-c2ccc3c(c2)CN(c2cccc(Cn4cncn4)c2)C3=O)cnc1OC` showed a Ki of less than 100 nM.
For the compound `COc1cc(-c2ccc3c(n2)CN(c2cnn(CCn4ccc(C)n4)c2)C3=O)cnc1OC`, the Ki was 100 to 490 nM.
`CCC(O)c1ncc(N2Cc3nc(-c4cnc(OC)c(OC)c4)cc(C)c3C2=O)cn1` (stereo not given) showed a Ki of less than 100 nM.
For `CCOc1cncc(N2Cc3nc(-c4cnc(OC)c(OC)c4)cc(C)c3C2=O)c1` the value was less than 100 nM; for `COc1cc(-c2ccc3c(n2)CN(c2cnn([C@@H](CO)C(F)(F)F)c2)C3=O)cnc1OC`, less than 100 nM.
For `COc1cncc(-c2cc(C)c3c(n2)C2(CC(O)C2)N(c2cnn(CC(F)(F)F)c2)C3=O)c1` (stereo not given), the Ki was less than 100 nM.
To `COc1cc(-c2ccc3c(c2)CN(c2ccn(CC(N)=O)n2)C3=O)cnc1OC` belongs 100 to 490 nM; to `COCCOc1ccc(N2Cc3nc(-c4cnc(OC)c(OC)c4)ccc3C2=O)cn1`, less than 100 nM.
For `Cc1cc(-c2cncc(NS(=O)(=O)c3ccc(F)cc3F)c2)nc2c1C(=O)N(c1cnn(CC(F)(F)F)c1)C2(C)C`, the Ki was less than 100 nM.
As for `CCn1ccc(N2C(=O)c3c(C)cc(-c4cncc(OC)c4)nc3[C@H]2C)n1`, the Ki was less than 100 nM.
For `CCOc1cc(-c2cc(C)c3c(n2)CN(c2ccon2)C3=O)cnc1OCC`, the Ki was less than 100 nM.
In the case of `COc1cc(-c2ccc3c(n2)CN(c2ccsc2)C3=O)cnc1OC`, the Ki is less than 100 nM.
In turn, `COc1cncc(-c2cc(C)c3c(n2)C(C)(C)N(c2cc[nH]n2)C3=O)c1` gave a Ki of 100 to 490 nM.
Compound `COc1cncc(-c2cc(C)c3c(n2)C(C)N(c2ccn([C@@H]4CCOC4)n2)C3=O)c1` (stereo not given in full) yielded a Ki of less than 100 nM.
Regarding `COc1cc(-c2ccc3c(n2)CN(c2cnn(CCN4CCC(C#N)CC4)c2)C3=O)cnc1OC`, the inhibition constant (Ki) is 100 to 490 nM.
For the compound `COc1cc(-c2ccc3c(n2)CN(c2cnn(CC4CCN(C(=O)OC(C)(C)C)CC4)c2)C3=O)cnc1OC`, the Ki fell in the range of 100 to 490 nM.
`COc1cc(-c2ccc3c(c2)CN(c2ncc(C)s2)C3=O)cnc1OC` returned a Ki of 100 to 490 nM.
Compound `COc1cc(-c2ccc3c(c2)CN(c2ccn(C)n2)C3=O)cnc1OC` had a Ki of less than 100 nM.
The compound `COc1cc(-c2ccc3c(c2)CN(c2cnn(CC4COc5ccccc5O4)c2)C3=O)cnc1OC` (stereo not given) came in with a Ki of 100 to 490 nM.
`Cc1cc(-c2cncc(S(=O)(=O)N(C)C)c2)nc2c1C(=O)N(c1ccn([C@H]3CCOC3)n1)C2` came in with a Ki of less than 100 nM.
To `COc1cc(-c2ccc3c(n2)CN(c2cnn(Cc4cc(C)no4)c2)C3=O)cnc1OC` belongs less than 100 nM; to `COc1cc(-c2ccc3c(n2)[C@@H](OC)N(c2cnn(CC(F)(F)F)c2)C3=O)cnc1OC`, less than 100 nM; to `CCOc1cncc(-c2cc(C)c3c(n2)C(C)(C)N(c2cnn(CC(F)(F)F)c2)C3=O)c1`, less than 100 nM.
Compound `CCN(C)C(=O)COc1ccc(N2Cc3nc(-c4cnc(OC)c(OC)c4)ccc3C2=O)cn1` came in with a Ki of 100 to 490 nM.
In turn, `CCn1ccc(N2C(=O)c3c(C)cc(-c4cncc(OCC(F)F)c4)nc3[C@H]2C)n1` returned a Ki of less than 100 nM.
For the compound `COCCOc1cc(-c2cc(C)c3c(n2)CN(c2cnn(CC(F)(F)F)c2)C3=O)cnc1OC`, the Ki is less than 100 nM.
For `COc1cc(-c2ccc3c(n2)CN(c2cnn(CCn4cncn4)c2)C3=O)cnc1OC` the value was less than 100 nM; for `Cc1cc(-c2cncc(OCC(F)F)c2)nc2c1C(=O)N(c1cnn(CC(F)(F)F)c1)C2O` (stereo not given), less than 100 nM; for `COc1cc(-c2ccc3c(n2)[C@H](C)N(c2ccnc(CC#N)c2)C3=O)cnc1OC`, less than 100 nM.
Turning to `COc1cc(-c2cc(C)c3c(n2)CN(c2ccc(OCC(F)(F)F)nc2)C3=O)cnc1OC`, the Ki is less than 100 nM.
The compound `C#CCNC(=O)c1cncc(-c2cc(C)c3c(n2)C(C)(C)N(c2cnn(CC(F)(F)F)c2)C3=O)c1` showed a Ki of less than 100 nM.
`COc1cccc(-c2cc(C)c3c(n2)CN(c2cnn(C(C)(C)C#N)c2)C3=O)c1` yielded a Ki of less than 100 nM.
In turn, `COc1ncc(-c2cc(C)c3c(n2)C(C)(C)N(c2cnn(CC(F)(F)F)c2)C3=O)cc1C(=O)NCC(C)(C)O` displayed a Ki of less than 100 nM.
To `COc1cc(-c2cc(C)c3c(n2)CN(c2cnccn2)C3=O)cnc1OC` belongs less than 100 nM.
For `COc1cc(-c2ccc3c(n2)CN(c2ccc(N4CCC(CCO)C4)nc2)C3=O)cnc1OC` (stereo not given), the Ki was 100 to 490 nM.
As to `CCOC(=O)c1cncc(N2Cc3nc(-c4cnc(OC)c(OC)c4)ccc3C2=O)c1`, the Ki is 100 to 490 nM.
Compound `COc1cncc(-c2cc(C)c3c(n2)[C@@H](OC)N(c2cnn(CC(F)(F)F)c2)C3=O)c1` came in with a Ki of less than 100 nM.
To `CCn1ccc(N2Cc3nc(-c4cncc(OC)c4)cc(C)c3C2=O)n1` belongs less than 100 nM; to `COc1cncc(-c2cc(C)c3c(n2)C(C)N(c2ccn(CC(C)(C)F)n2)C3=O)c1` (stereo not given), less than 100 nM; to `COCCOCn1cc(N2Cc3nc(-c4cnc(OC)c(OC)c4)ccc3C2=O)cn1`, less than 100 nM.
`COc1cc(-c2ccc3c(n2)[C@H](C)N(c2cnn(CC#N)c2)C3=O)cnc1OC` returned a Ki of less than 100 nM.
Turning to `COc1cc(-c2ccc3c(n2)C(C)N(c2cn[nH]c2)C3=O)cnc1OC` (stereo not given), the Ki was less than 100 nM.
To `COc1cc(-c2ccc3c(n2)CN(c2ccn(CC4CCCCO4)n2)C3=O)cnc1OC` (stereo not given) belongs less than 100 nM; to `COCCOCCOc1ncc(-c2cc(C)c3c(n2)C(C)N(c2cnn(CC(F)(F)F)c2)C3=O)cc1OC` (stereo not given), less than 100 nM.
`COc1cc(-c2ccc3c(c2)CN(c2cncc(CC#N)c2)C3=O)cnc1OC` came in with a Ki of less than 100 nM.
In turn, `COc1cc(-c2cc(C)c3c(n2)CN(c2cnn(C[C@@H](C)O)c2)C3=O)cnc1OC` yielded a Ki of less than 100 nM.
To `CCOc1ncc(-c2cc(C)c3c(n2)[C@]2(CCCO2)N(c2ccn(CC)n2)C3=O)cc1OC` belongs 100 to 490 nM; to `COc1cncc(-c2cc(C)c3c(n2)C2(CC=CC2)N(c2cnn(CC(F)(F)F)c2)C3=O)c1`, less than 100 nM; to `COc1cc(-c2cc(C)c3c(n2)CN(c2ccc(OCC(F)F)nc2)C3=O)cnc1OC`, less than 100 nM.
`COc1cc(-c2cc(C)c3c(n2)C(OCC2CC2)N(c2cnn(CC(F)(F)F)c2)C3=O)cnc1OC` (stereo not given): the Ki is less than 100 nM.
In turn, `COc1cc(-c2ccc3c(n2)C(O)N(c2cnn(CC(F)(F)F)c2)C3=O)cnc1OC` (stereo not given) had a Ki of less than 100 nM.
`COc1cc(-c2ccc3c(n2)CN(c2cnn(C(CO)C(F)(F)F)c2)C3=O)cnc1OC` (stereo not given): the Ki is less than 100 nM.
`CC1c2nc(-c3cccc(OC(F)(F)F)c3)ccc2C(=O)N1c1cnn(CC(F)(F)F)c1` (stereo not given) displayed a Ki of less than 100 nM.
For `COc1cc(-c2cc(C)c3c(n2)C(C)(C)N(c2cnn(CC(F)(F)F)c2)C3=O)cnc1F` the value was less than 100 nM; for `COc1cc(-c2cc(C)c3c(n2)CN(c2ccn(CC(F)(F)F)n2)C3=O)cnc1OC`, less than 100 nM.
Compound `COc1cncc(-c2cc(C)c3c(n2)C(C)(C)N(c2cnn([C@@H]4CCOC4)c2)C3=O)c1` gave a Ki of less than 100 nM.
To `COCc1cc(N2Cc3nc(-c4cnc(OC)c(OC)c4)ccc3C2=O)n[nH]1` belongs less than 100 nM; to `CCOC(=O)C(F)(F)c1ccc(N2Cc3nc(-c4cnc(OC)c(OC)c4)ccc3C2=O)cn1`, 100 to 490 nM.
In turn, `Cc1cc(-c2cncc(OC(F)F)c2)nc2c1C(=O)N(c1ccnc(OCC(F)F)c1)C2` returned a Ki of less than 100 nM.
As for `COc1cc(-c2ccc3c(c2)CN(c2cc(C)ns2)C3=O)cnc1OC`, the Ki was in the range of 100 to 490 nM.
Compound `COc1cc(-c2ccc3c(n2)CN(c2ccn(CC(F)F)c(=O)c2)C3=O)cnc1OC` yielded a Ki of less than 100 nM.
For `CCCCOCCOc1cc(-c2cc(C)c3c(n2)CN(c2cnn(CC(F)(F)F)c2)C3=O)cnc1OC` the value was less than 100 nM.
